Measurements reported in US9693971B2, “Compositions for alleviating gastrointestinal tract disorders or associated systemic disorders in ruminants and camelids” (FREIE UNIVERSITÄT BERLIN, priority 2012, dated 2017).
“Also recorded” adds a separate entry of the source. Like-named read-outs stand apart in the source and are kept apart here.

Tests used:
[1] = target: TRPA1 (Homo sapiens, UniProt O75762); conditions: cited from earlier work
[2] = target: T1, TRPV3 (Homo sapiens, UniProt Q8NET8); conditions: cited from earlier work
T1 sequence (Q8NET8 1-790): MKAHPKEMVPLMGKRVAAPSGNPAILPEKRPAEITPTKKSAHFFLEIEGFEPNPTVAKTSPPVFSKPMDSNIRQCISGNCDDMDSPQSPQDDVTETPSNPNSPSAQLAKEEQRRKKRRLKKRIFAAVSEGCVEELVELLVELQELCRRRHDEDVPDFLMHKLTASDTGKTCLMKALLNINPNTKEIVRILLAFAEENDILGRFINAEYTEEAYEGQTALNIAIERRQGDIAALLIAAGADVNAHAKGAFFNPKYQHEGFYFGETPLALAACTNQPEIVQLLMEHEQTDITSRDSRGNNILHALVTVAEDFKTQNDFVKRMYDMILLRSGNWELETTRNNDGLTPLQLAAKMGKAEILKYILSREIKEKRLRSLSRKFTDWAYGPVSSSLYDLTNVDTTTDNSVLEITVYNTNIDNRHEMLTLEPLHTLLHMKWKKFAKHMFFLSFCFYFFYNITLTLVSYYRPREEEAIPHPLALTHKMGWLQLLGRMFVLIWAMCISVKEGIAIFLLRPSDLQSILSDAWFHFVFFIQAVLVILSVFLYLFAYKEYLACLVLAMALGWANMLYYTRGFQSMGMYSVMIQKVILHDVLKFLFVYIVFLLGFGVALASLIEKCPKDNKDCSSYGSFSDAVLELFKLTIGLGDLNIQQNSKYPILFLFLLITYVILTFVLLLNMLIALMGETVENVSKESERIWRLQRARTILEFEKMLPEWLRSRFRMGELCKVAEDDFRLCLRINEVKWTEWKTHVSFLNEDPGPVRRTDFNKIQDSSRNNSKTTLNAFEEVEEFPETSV

[3] = target: TRPV1 (Homo sapiens, UniProt Q8NER1); conditions: cited from earlier work
TRPV1, sequence (Q8NER1 whole entry, species assumed): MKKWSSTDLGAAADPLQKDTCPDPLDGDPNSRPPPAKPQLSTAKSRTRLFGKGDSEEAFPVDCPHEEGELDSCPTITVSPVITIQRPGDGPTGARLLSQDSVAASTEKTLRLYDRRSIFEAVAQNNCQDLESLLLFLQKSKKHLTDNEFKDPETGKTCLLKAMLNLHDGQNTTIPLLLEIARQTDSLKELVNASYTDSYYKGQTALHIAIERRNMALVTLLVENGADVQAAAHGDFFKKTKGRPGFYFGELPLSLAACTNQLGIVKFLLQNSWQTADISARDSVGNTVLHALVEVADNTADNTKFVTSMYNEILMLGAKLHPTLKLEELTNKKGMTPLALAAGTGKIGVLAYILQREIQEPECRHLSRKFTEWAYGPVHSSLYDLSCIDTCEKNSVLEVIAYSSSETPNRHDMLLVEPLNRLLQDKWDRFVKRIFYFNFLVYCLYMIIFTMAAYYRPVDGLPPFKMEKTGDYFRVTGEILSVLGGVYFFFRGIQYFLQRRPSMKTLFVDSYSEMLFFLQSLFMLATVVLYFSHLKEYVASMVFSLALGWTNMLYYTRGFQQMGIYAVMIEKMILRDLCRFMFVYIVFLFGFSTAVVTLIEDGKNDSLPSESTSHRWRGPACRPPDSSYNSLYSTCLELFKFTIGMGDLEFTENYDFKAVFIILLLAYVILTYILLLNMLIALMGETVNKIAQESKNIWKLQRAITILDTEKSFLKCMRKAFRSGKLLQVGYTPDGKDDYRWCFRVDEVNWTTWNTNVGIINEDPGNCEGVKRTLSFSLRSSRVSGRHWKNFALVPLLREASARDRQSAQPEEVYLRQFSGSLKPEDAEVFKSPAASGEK

[4] = target: TRPM8 (Homo sapiens, UniProt Q7Z2W7); conditions: cited from earlier work
TRPM8, sequence (Q7Z2W7 whole entry, species assumed): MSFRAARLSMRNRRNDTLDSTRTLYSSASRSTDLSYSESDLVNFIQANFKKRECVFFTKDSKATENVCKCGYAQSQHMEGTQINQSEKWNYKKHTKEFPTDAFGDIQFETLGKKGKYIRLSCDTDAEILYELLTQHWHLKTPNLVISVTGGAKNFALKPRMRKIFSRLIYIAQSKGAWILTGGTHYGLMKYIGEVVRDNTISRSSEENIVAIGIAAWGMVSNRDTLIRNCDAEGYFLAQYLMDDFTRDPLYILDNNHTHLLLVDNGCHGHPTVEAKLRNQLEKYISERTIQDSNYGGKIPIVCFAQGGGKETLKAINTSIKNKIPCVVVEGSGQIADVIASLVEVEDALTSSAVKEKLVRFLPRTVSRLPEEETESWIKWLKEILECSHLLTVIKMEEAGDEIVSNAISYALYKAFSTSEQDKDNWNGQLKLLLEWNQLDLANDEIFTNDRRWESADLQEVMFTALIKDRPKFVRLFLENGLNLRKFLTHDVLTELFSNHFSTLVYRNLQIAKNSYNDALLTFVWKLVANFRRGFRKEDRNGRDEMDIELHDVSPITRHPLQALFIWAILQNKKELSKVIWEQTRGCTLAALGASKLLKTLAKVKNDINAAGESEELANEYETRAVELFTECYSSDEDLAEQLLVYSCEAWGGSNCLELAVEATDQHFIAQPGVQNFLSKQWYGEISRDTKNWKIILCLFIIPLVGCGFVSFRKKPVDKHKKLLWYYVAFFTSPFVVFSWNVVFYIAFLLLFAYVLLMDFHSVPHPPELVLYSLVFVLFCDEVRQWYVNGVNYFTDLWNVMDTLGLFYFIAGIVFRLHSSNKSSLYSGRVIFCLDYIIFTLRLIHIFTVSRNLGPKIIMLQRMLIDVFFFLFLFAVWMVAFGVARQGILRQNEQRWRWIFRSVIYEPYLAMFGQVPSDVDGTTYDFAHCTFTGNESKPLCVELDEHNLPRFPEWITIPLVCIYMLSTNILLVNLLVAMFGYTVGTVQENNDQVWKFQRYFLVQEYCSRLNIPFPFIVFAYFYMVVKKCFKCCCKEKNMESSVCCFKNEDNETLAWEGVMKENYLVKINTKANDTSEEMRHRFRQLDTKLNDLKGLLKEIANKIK

[5] = tested on: rumen epithelium from cattle; test: Ussing chamber: ammonium-induced transepithelial short-circuit current (Isc) across isolated rumen epithelium; format: cell-based; conditions: for influence on ammonium-induced conductivity / transport across rumen epithelium (profile in words): no concentration stated
Text: The experiments on the intact epithelium take place as already specified (Abdoun, Stumpff et al. 2005; Abdoun, Stumpff et al. 2010). The measuring techniques used are a combination of the Ussing chamber technique developed by Ussing (1949) and the microelectrode technique.
When examining epithelial transport processes with the Ussing chamber, the epithelium is installed in a special chamber, which makes it possible to rinse the two sides of the epithelium (apical: food side; basolateral: blood side) separately of each other with buffer solutions of various composition, wherein the electrophysiological parameters (current and voltage) across the epithelium are traced. Hereby, it is made possible to differentiate between the transport of an uncharged substance (e.g. ammonia, NH3) and the transport of a charged substance (e.g. ammonium, NH4^+), as the former takes place without a change in current and voltage, whereas the latter is coupled with the transfer of a charge and thus changes the transepithelial electrical parameters.
With the help of a special modification, the reaction of individual epithelia to solution changes, taking place very rapidly and smoothly, is also examined over time. Hereby, for example, the reproducibility of a pharmacological intervention on the same piece of epithelium can very well be examined. This modification of the classic Ussing chamber technique is particularly, albeit not exclusively, used for the comparative “screening” of the various substances which are subject of an aspect of the present invention.
The epithelium is horizontally clamped into a modified Ussing chamber, wherein the mucosal side faces upwards. The chamber made of plexi-glass has a cross-section surface of 0.79 cm^2, which is corrected to 1 cm^2. As a protection against damages on the edges of the epithelium, “edge damage”, a silicone ring is in each case placed between chamber and epithelium. The two resulting chambers (mucosal and serosal) are each supplied by their own perfusion system (4-channel-stand-pump, Ismatec SA). With three-way valves, an independent solution change between altogether eight solutions is possible in the two chambers. During storage, the solutions are gassed in their containers with 100% O2. To warm the solutions up to 37° C., the thin perfusion tubes run through a heat exchanger pump. The suction device (Masterflex R/S, Cole Parmer Instrument Company) present in both chambers guarantees a rapid and safe change of solution. In order to ensure that there are no solution change artefacts when adding agonists and antagonists, the substances are pipetted into the respective solution, wherein the gassing ensures a rapid mixing. In this way, pressure fluctuations or an interruption of the flow through the chamber can be safely precluded.
As in the conventional Ussing chamber technique, there are in each case two electrodes near the tissue and two electrodes distant from the tissue for measuring the transepithelial potential difference and the transepithelial current (Isc). The connections between the Ag/AgCl electrodes, which are filled with 3 M KCl, are established via agar bridges. Just as in Strecker (Strecker 2011), the measuring chamber is connected to a “voltage clamp” installation (Ussing chamber unit) in assembly with a microelectrode amplifier (both Biomedical Instruments Co., Germering). A micromanipulator (MF 500) installed above the measuring chamber offers the possibility to move the microelectrode in fine μm steps. Additionally, a microscope as well as a cold-light source are located above the apparatus.
Menthol (Sigma-Aldrich) was dissolved at a concentration of 1 mol·l^−1 in ethanol and pipetted into the used test solution containing ammonium. For an end concentration of 1 mmol·l^−1, 20 μl of this stock solution was added to 20 ml test solution; for 200 μmol·l^−1 correspondingly less. In control experiments, corresponding amounts of pure ethanol were added to the test solution.

TRPA1, sequence (O75762 whole entry, species assumed): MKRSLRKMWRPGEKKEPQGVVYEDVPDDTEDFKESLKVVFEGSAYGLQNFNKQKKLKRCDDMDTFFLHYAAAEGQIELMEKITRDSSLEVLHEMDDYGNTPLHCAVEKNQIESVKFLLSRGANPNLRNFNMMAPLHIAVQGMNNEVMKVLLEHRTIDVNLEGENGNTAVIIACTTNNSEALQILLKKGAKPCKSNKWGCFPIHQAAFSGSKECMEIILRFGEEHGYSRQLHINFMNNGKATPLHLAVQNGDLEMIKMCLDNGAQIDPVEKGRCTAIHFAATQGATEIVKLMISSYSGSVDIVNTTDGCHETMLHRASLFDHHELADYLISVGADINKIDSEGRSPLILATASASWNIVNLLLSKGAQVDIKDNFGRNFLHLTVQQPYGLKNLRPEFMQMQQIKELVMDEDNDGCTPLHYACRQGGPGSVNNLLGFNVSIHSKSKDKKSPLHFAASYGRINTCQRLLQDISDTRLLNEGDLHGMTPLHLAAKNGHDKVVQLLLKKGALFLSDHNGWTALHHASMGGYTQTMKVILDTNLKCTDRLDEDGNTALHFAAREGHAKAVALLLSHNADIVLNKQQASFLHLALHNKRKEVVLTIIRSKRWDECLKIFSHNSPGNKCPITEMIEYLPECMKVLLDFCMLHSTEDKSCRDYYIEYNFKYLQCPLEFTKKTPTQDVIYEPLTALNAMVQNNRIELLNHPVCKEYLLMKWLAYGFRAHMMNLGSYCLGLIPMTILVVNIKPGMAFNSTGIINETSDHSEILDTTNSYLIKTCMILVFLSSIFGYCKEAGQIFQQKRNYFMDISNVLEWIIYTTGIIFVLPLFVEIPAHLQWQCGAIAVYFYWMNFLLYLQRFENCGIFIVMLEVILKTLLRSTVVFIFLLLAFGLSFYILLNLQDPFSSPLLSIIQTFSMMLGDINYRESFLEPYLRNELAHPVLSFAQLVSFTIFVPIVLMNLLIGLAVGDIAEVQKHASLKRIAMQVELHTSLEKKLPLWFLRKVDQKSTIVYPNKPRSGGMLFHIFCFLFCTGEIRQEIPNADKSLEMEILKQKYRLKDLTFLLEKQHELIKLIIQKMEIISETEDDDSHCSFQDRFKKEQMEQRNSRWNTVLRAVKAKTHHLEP

Compound: C=CCS[S+]([O-])CC=C (stereo not drawn) [Allicin, allicin]
- Effect on TRPA1 [1]: Agonist

Compound: C=CCN=C=S [Allyl isothiocyanate, allyl isothiocyanate]
- Effect on TRPA1 [1]: Agonist

Compound: S=C=NCc1ccccc1 [Benzyl isothiocyanate, benzyl isothiocyanate]
- Effect on TRPA1 [1]: Agonist

Compound: CC12CCC(CC1=O)C2(C)C (stereo not drawn) [Camphor, camphor]
- Effect on TRPV3 [2]: nonspecific
- Effect on TRPA1 [1]: Antagonist
- Effect on TRPV1 [3]: Agonist

Compound: C=C(C)[C@@H]1CCC(C)=C[C@H]1c1c(O)cc(CCCCC)cc1O [Cannabidiol, cannabidiol]
- Effect on TRPV1 [3]: Agonist

Compound: Oc1cc2c(cc1O)CN(C(=S)NCCc1ccc(Cl)cc1)CCC2 [Capsazepine, capsazepine]
- Effect on TRPV1 [3]: Antagonist

Compound: Cc1ccc(C(C)C)cc1O [Carvacrol, carvacrol]
- Effect on TRPV3 [2]: Agonist
- Effect on TRPA1 [1]: Agonist
- Effect on TRPA1 ([1]; listed as carvacrol): potent TRPA1 agonists

Compound: CC1CCC(C(C)(C)O)C(O)C1 (stereo not drawn) [Cis- and trans-p-menthane-3,8-diol, p-menthane-3,8-diol]
- Effect on TRPM8 [4]: Agonist

Compound: CCO [Ethanol]
- Effect on TRPM8 [4]: Antagonist

Compound: CC12CCC(CC1)C(C)(C)O2 [Eucalyptol, eucalyptol]
- Effect on TRPM8 [4]: Agonist
- Effect on TRPM8 ([4]; listed as eucalyptol): potent TRPM8 agonist

Compound: C=CCc1ccc(O)c(OC)c1 [Eugenol, eugenol]
- Effect on TRPM8 [4]: Agonist
- Effect on TRPV3 [2]: nonspecific
- Effect on TRPA1 [1]: Agonist
- Effect on TRPA1 ([1]; listed as eugenol): potent TRPA1 agonists
- Effect on TRPV1 [3]: Agonist

Compound: CC(C)=CCC/C(C)=C/CO [Geraniol, geraniol]
- Effect on TRPM8 [4]: Agonist
- Effect on TRPM8 ([4]; listed as geraniol): potent TRPM8 agonist

Compound: CC(CC=O)CCCC(C)(C)O (stereo not drawn) [Hydroxyl-citronellal, hydroxyl-citronellal]
- Effect on TRPM8 [4]: Agonist

Compound: O=C1NC(c2cccc([N+](=O)[O-])c2)=CCN1c1ccccc1O [Icilin, icilin]
- Effect on TRPM8 [4]: Agonist

Compound: CC(C)N=C=S [Isopropyl isothiocyanate, isopropyl isothiocyanate]
- Effect on TRPA1 [1]: Agonist

Compound: C=C(C)[C@@H]1CC[C@@H](C)C[C@H]1O [Isopulegol, isopulegol]
- Effect on TRPM8 [4]: Agonist

Compound: CC1(C)C[C@H]2C=C(C=O)[C@]3(C=O)C[C@]3(C)[C@H]2C1 [Isovelleral, isovelleral]
- Effect on TRPV1 [3]: Agonist

Compound: C=C(C)[C@@H]1CC=C(C)C(=O)C1 [L-carvone, 1-carvone]
- Effect on TRPM8 [4]: Agonist

Compound: C=CC(C)(O)CCC=C(C)C (stereo not drawn) [Linalool, linalool]
- Effect on TRPM8 [4]: Agonist

Compound: CC(C)[C@@H]1CC[C@@H](C)CC1=O [Menthone, menthone]
- Effect on TRPM8 [4]: Agonist
- Effect on TRPM8 ([4]; listed as menthone): potent TRPM8 agonist

Compound: CC1CCC(C(C)C)C(OC(=O)C(C)O)C1 (stereo not drawn) [Menthyl lactate, menthyl lactate]
- Effect on TRPM8 [4]: Agonist

Compound: CN=C=S [Methyl isothiocyanate, methyl isothiocyanate]
- Effect on TRPA1 [1]: Agonist

Compound: N [NH4^+, ammonium]
- transepithelial current, MV ([5]; 40 mM NH4^+ replacing NMDG+, n=37, NaCl before −2.43, after washout −2.68): −25.73 μA · cm^−2
- transepithelial current, Median ([5]; 40 mM NH4^+ replacing NMDG+, n=37, NaCl median −3.60): −22.32 μA · cm^−2

Compound: CCCCCCCC/C=C\CCCCCCCC(=O)NCc1ccc(O)c(OC)c1 [Olvanil, olvanil]
- Effect on TRPV1 [3]: Agonist

Compound: S=C=NCCc1ccccc1 [Phenylethyl isothiocyanate, phenylethyl isothiocyanate]
- Effect on TRPA1 [1]: Agonist

Compound: CC1(C)CCC[C@]2(C)[C@@H](C=O)C(C=O)=CC[C@@H]12 [Polygodial, polygodial]
- Effect on TRPV1 [3]: Agonist

Compound: C=C(C)[C@]12C[C@@H](C)[C@@]34O[C@](Cc5ccccc5)(O[C@@H]1[C@@H]3C=C(COC(=O)Cc1ccc(O)c(OC)c1)C[C@]1(O)C(=O)C(C)=C[C@@H]41)O2 [Resiniferatoxin, resiniferatoxin]
- Effect on TRPV1 [3]: Agonist

Compound: C/C=C(/C)C(=O)O[C@H]1C(C)=C2[C@H]([C@@H]1OC(=O)CCCCCCC)[C@@](C)(OC(C)=O)C[C@H](OC(=O)CCC)[C@@]1(O)[C@H]2OC(=O)[C@@]1(C)O [Thapsigargin, thapsigargin]
- Effect on TRPV1 [3]: Antagonist

Compound: COc1cc(CCC(C)=O)ccc1O [Vanillylacetone, vanillylacetone]
- Effect on TRPV1 [3]: Agonist

Compound: COc1cc(CNC(=O)CCCC/C=C/C(C)C)ccc1O [capsaicin]
- influence on ammonium-induced conductivity / transport across rumen epithelium (profile in words) [5]: significantly influenced
- Effect on TRPV1 [3]: Agonist

Compound: O=CC=Cc1ccccc1 [cinnamaldehyde]
- Effect on TRPM8 [4]: Antagonist
- Effect on TRPA1 [1]: potent TRPA1 agonists; also recorded: Agonist
- transepithelial current, MV ([5]; cinnamaldehyde (concentration not given) in 40 mM NH4^+, n=7, before −31.53, p = 0.313): −28.39 μA · cm^−2
- transepithelial current, Median ([5]; cinnamaldehyde in 40 mM NH4^+, n=7, before −26.52): −24.03 μA · cm^−2
- influence on ammonium-induced conductivity / transport across rumen epithelium (profile in words) [5]: inhibiting profile

Compound: COC(=O)c1ccccc1O [methyl salicylate]
- Effect on TRPA1 [1]: potent TRPA1 agonists
- Effect on TRPA1 ([1]; listed as Methyl salicilate): Agonist
- influence on ammonium-induced conductivity / transport across rumen epithelium (profile in words) [5]: inhibiting profile
- transepithelial current after addition (maximum reduction) ([5]; reduced from −25.44±1.8, n=4, not (yet) significant): −21.06±2.97 μA·cm^−2

Compound: COc1ccc(CCN(C)CCCC(C#N)(c2ccc(OC)c(OC)c2)C(C)C)cc1OC (stereo not drawn) [verapamil]
- change of transepithelial current ([5]; 1 mmol·l^−1 added to solution containing ammonium): the current drops

Compound: evodiamine
- Effect on TRPV1 [3]: Agonist
